# Test results taken from patent publication US4349545A, “Novel erythromycin a derivatives” (Roussel Uclaf, priority 1980, dated 1982).
# Assays:
# [1] = test system: Staphylococcus aureus No. 54,146; experiment: In vivo activity in mice experimentally infected with Staphylococcus aureus No. 54,146; conditions: groups of 10 mice
# Method: The test was effected with the compounds of the invention and erythromycin as a reference on groups of 10 mice weighing about 21 g experimentally infected with Staphylococcus aureus No. 54,146 by intraperitoneal administration of 0.5 ml of a 22 hour culture of the said organism in bouillon with a pH of 7 diluted to 1/6 with physiological water. The test compounds were orally administrated to the mice 1,5 and 24 hours after the infection and the mortality on the 8th day was determined.
# [2] = test system: Staphylococcus aureus 1061; experiment: serial dilution liquid medium MIC, Staphylococcus aureus 1061 pen-sensibles; assay type: cell-based; conditions: 24 hours at 37° C., read-out: minimum inhibiting concentration (MIC)
# Method: (§1) The method was a serial dilution of liquid medium test wherein a series of tubes were prepared containing the same amount of sterile nutritive medium and increasing amounts of the test product was distributed in each tube. The tubes were then seeded with a bacterial strain and incubated for 24 hours in an oven at 37° C. The degree of inhibition was determined by transillumination to determine the minimum inhibiting concentration (MIC) express in μg/ml and the results are reported in the following Tables.
# [3] = test system: Staphylococcus aureus UC 1128; experiment: serial dilution liquid medium MIC, Staphylococcus aureus UC 1128 pen-resistant; assay type: cell-based; conditions: UC1128; Staphylococcus aureus UC 1128 pen-resistant; 24 hours at 37° C.; read-out: minimum inhibiting concentration (MIC)
# Method: as §1
# [4] = test system: Streptococcus faecalis 5432; experiment: serial dilution liquid medium MIC, Streptococcus faecalis 5432; assay type: cell-based; conditions: Enterococcus faecalis, 24 hours at 37° C., read-out: minimum inhibiting concentration (MIC)
# Method: as §1
# [5] = test system: Streptococcus faecalis 99 F 74; experiment: serial dilution liquid medium MIC, Streptococcus faecalis 99 F 74; assay type: cell-based; conditions: Enterococcus faecalis, 99F74, 24 hours at 37° C., read-out: minimum inhibiting concentration (MIC)
# Method: as §1
# [6] = test system: Streptococcus pyogenes A 561; experiment: serial dilution liquid medium MIC, Streptococcus pyogenes A 561; assay type: cell-based; conditions: A561, 24 hours at 37° C., read-out: minimum inhibiting concentration (MIC)
# Method: as §1
# [7] = test system: Streptococcus faecalis 5435; experiment: serial dilution liquid medium MIC, Streptococcus faecalis 5435; assay type: cell-based; conditions: Enterococcus faecalis, 24 hours at 37° C., read-out: minimum inhibiting concentration (MIC)
# Method: as §1
# [8] = test system: Staphylococcus aureus exp. n° 54 146; experiment: serial dilution liquid medium MIC, Staphylococcus aureus exp. n° 54 146; assay type: cell-based; conditions: Staphylococcus aureus exp. 54 146; 24 hours at 37° C.; read-out: minimum inhibiting concentration (MIC)
# Method: as §1
# [9] = dose 0,5mg oral, 1,5 and 24 hours after infection
# [10] = dose 0,25mg oral, 1,5 and 24 hours after infection
# [11] = dose 0,75mg oral, 1,5 and 24 hours after infection
SMILES,MIC [2] [µg/mL],MIC [3] [µg/mL],MIC [4] [µg/mL],MIC [5] [µg/mL],MIC [6] [µg/mL],MIC [7] [µg/mL],MIC [8] [µg/mL],"No. of mice living on the 8th day [1, 9] [mice]","No. of mice living on the 8th day [1, 10] [mice]","No. of mice living on the 8th day [1, 11] [mice]","No. of mice living on the 8th day ([1]; dose 1mg oral, 1,5 and 24 hours after infection) [mice]"
"CCOCON=C1[C@H](C)C[C@@](C)(O)[C@H](O[C@@H]2O[C@H](C)C[C@H](N(C)C)[C@H]2O)[C@@H](C)[C@H](O[C@H]2C[C@@](C)(OC)[C@@H](O)[C@H](C)O2)[C@@H](C)C(=O)O[C@H](CC)[C@@](C)(O)[C@H](O)[C@H]1C [Example 20, 9-[0-(ethoxymethyl)-oxime] of erythromycin]",0.4,0.6,0.1,0.1,0.1,0.2,0.4,4,2,10,
"CC[C@H]1OC(=O)[C@H](C)[C@@H](O[C@H]2C[C@@](C)(OC)[C@@H](O)[C@H](C)O2)[C@H](C)[C@@H](O[C@@H]2O[C@H](C)C[C@H](N(C)C)[C@H]2O)[C@](C)(O)C[C@@H](C)C(=NOCC2OCCO2)[C@H](C)[C@@H](O)[C@]1(C)O [Example 30, 9-[0-{(1,3-dioxolan-2-yl)-methyl}-oxime] of erythromycin]",0.4,0.6,0.4,0.2,0.05,2,0.4,7,2,10,
"CC[C@H]1OC(=O)[C@H](C)[C@@H](O[C@H]2C[C@@](C)(OC)[C@@H](O)[C@H](C)O2)[C@H](C)[C@@H](O[C@@H]2O[C@H](C)C[C@H](N(C)C)[C@H]2O)[C@](C)(O)C[C@@H](C)C(=NOCOC)[C@H](C)[C@@H](O)[C@]1(C)O [Example 33, 9-[O-(methoxymethyl)-oxime] of erythromycin]",0.1,0.4,0.1,0.1,0.02,0.2,0.2,10,7,,
"CC[C@H]1OC(=O)[C@H](C)[C@@H](O[C@H]2C[C@@](C)(OC)[C@@H](O)[C@H](C)O2)[C@H](C)[C@@H](O[C@@H]2O[C@H](C)C[C@H](N(C)C)[C@H]2O)[C@](C)(O)C[C@@H](C)C(=NOCCN2CCOCC2)[C@H](C)[C@@H](O)[C@]1(C)O [Example 35, 9-[O-(2-{morpholin-4-yl}-ethyl)oxime] of erythromycin]",0.4,1,0.2,0.4,0.05,1,0.6,8,2,9,10
"CCSCCON=C1[C@H](C)C[C@@](C)(O)[C@H](O[C@@H]2O[C@H](C)C[C@H](N(C)C)[C@H]2O)[C@@H](C)[C@H](O[C@H]2C[C@@](C)(OC)[C@@H](O)[C@H](C)O2)[C@@H](C)C(=O)O[C@H](CC)[C@@](C)(O)[C@H](O)[C@H]1C [Example 13, 9-[0-(2-ethylthioethyl)-oxime] of erythromycin]",0.4,0.6,0.01,0.1,0.02,0.4,0.4,,,,

# The next lines start with results.
MIC [2] [µg/mL],MIC [3] [µg/mL],MIC [4] [µg/mL],MIC [5] [µg/mL],MIC [6] [µg/mL],MIC [7] [µg/mL],MIC [8] [µg/mL],SMILES,"No. of mice living on the 8th day [1, 9] [mice]","No. of mice living on the 8th day [1, 10] [mice]","No. of mice living on the 8th day [1, 11] [mice]","No. of mice living on the 8th day ([1]; dose 1mg oral, 1,5 and 24 hours after infection) [mice]"
0.2,0.5,0.1,0.1,≤ 0.01,0.5,0.5,"CC[C@H]1OC(=O)[C@H](C)[C@@H](O[C@H]2C[C@@](C)(OC)[C@@H](O)[C@H](C)O2)[C@H](C)[C@@H](O[C@@H]2O[C@H](C)C[C@H](N(C)C)[C@H]2O)[C@](C)(O)C[C@@H](C)C(=NOC(C)CN(C)C)[C@H](C)[C@@H](O)[C@]1(C)O (stereo partly shown) [Example 36, 9-[O-(2-dimethylamino-1-methyl-ethyl)-oxime] of erythromycin]",9,3,10,
0.3,0.6,0.05,≤ 0.02,0.01,0.1,0.4,"CC[C@H]1OC(=O)[C@H](C)[C@@H](O[C@H]2C[C@@](C)(OC)[C@@H](O)[C@H](C)O2)[C@H](C)[C@@H](O[C@@H]2O[C@H](C)C[C@H](N(C)C)[C@H]2O)[C@](C)(O)C[C@@H](C)C(=NOCCNC(C)C)[C@H](C)[C@@H](O)[C@]1(C)O [Example 39, 9-[O-(2-isopropylamino)-oxime] of erythromycin]",,,,
